Test results as given in patent publication US12728119B2, “Pharmaceutical composition for preventing or treating cancer comprising 3-ketoacyl CoA thiolase inhibitor and carnitine acylcarnitine carrier inhibitor” (NATIONAL CANCER CENTER, priority 2020, dated 2026).

Experiments:
Type in all cases: cell-based
A375 melanoma cell line = assay: SRB analysis 3; details: 48 hours
Protocol: (§1) Through SRB analysis (n=3), the effect of triple combination treatment of a CAC inhibitor (KN510: omeprazole), ACAA inhibitor (KN713: trimetazidine) and other anticancer drug on cell growth in the cancer cells was analyzed. (see Table 11).
(§2) The SRB assay was performed as follows: each cell line (100 μl) was seeded into 96-well microtiter plates at densities ranging from 5,000 to 40,000 cells/well depending on the doubling time of each cell line. After 24 hours, drug (100 μl per well) was added to each well and the culture was incubated at 37° C. for 48 hours. Cells were then fixed in 50% TCA (50 μl per well) and plates were incubated at 4° C. for a minimum of 1 hour or a maximum of 3 hours. After that, the liquid was removed from the plate, then rinsed 5 times with water and dried for approximately 12-24 hours at room temperature (RT). After the fixed cells were stained with 0.4% SRB (100 μl per well) for 10 minutes at room temperature, the plates were washed 3 times with 1% glacial acetic acid and dried at room temperature for about 12-24 hours. SRB staining was dissolved in 10 mM Trizma base and absorbance was read at 515 nm. The effect of the drug was expressed as GI50 (50% growth inhibition), TGI (total growth inhibition) or LC50 (lethal concentration). GI50 is the maximum concentration at the moment of 50% inhibition of cell proliferation and IC50 is the concentration of the drug that inhibits the enzyme activity in vitro by 50% in this study.

[1] = system: A549 non-small cell lung cancer (NSCLC) cell line; assay: SRB analysis 3; details: 48 hours
Protocol: as §1, §2

[2] = system: ACHN renal cancer cell line; assay: SRB analysis 3; details: 48 hours
Protocol: as §1, §2

[3] = system: AGS gastric cancer cell line; assay: SRB analysis 3; details: 48 hours
Protocol: as §1, §2

[4] = system: AsPC-1 pancreatic cancer (PDAC) cell line; assay: SRB analysis 3; details: 48 hours
Protocol: as §1, §2

[5] = system: COLO-205 colon cancer cell line; assay: SRB analysis 3; details: 48 hours
Protocol: as §1, §2

[6] = system: Caki-1 renal cancer cell line; assay: SRB analysis 3; details: 48 hours
Protocol: as §1, §2

[7] = system: DU145 prostate cancer cell line; assay: SRB analysis 3; details: 48 hours
Protocol: as §1, §2

[8] = system: H1975 non-small cell lung cancer (NSCLC) cell line; assay: SRB analysis 3; details: 48 hours
Protocol: as §1, §2

[9] = system: HCT-116 colon cancer cell line; assay: SRB analysis 3; details: 48 hours
Protocol: as §1, §2

[10] = system: Huh-7 liver cancer cell line; assay: SRB analysis 3; details: 48 hours
Protocol: as §1, §2

[11] = system: MCF7 breast cancer cell line; assay: SRB analysis 3; details: 48 hours
Protocol: as §1, §2

[12] = system: MDA-MB-231 breast cancer cell line; assay: SRB analysis 3; details: 48 hours
Protocol: as §1, §2

[13] = system: MIA PaCa-2 pancreatic cancer (PDAC) cell line; assay: SRB analysis 3; details: 48 hours
Protocol: as §1, §2

[14] = system: MKN45 gastric cancer cell line; assay: SRB analysis 3; details: 48 hours
Protocol: as §1, §2

[15] = system: OVCAR-8 ovarian cancer cell line; assay: SRB analysis 3; details: 48 hours
Protocol: as §1, §2

[16] = system: PC-3 prostate cancer cell line; assay: SRB analysis 3; details: 48 hours
Protocol: as §1, §2

[17] = system: SK-OV-3 ovarian cancer cell line; assay: SRB analysis 3; details: 48 hours
Protocol: as §1, §2

[18] = system: SK-hep-1 liver cancer cell line; assay: SRB analysis 3; details: 48 hours
Protocol: as §1, §2

[19] = system: UACC62 melanoma cell line; assay: SRB analysis 3; details: 48 hours
Protocol: as §1, §2

[20] = system: T87G glioblastoma (GBM) cell line; assay: SRB analysis 3; details: 48 hours
Protocol: as §2, with “Through SRB analysis (n=3), the effect of triple combination treatment of a CAC inhibitor ([…] inhibitor (KN713: trimetazidine) and other anticancer drug on cell growth in the cancer cells was analyzed. (see Table 11). The” for “The”, “nm.” for “nm. The effect of the drug was expressed as GI50 (50% growth inhibition), TGI (total growth inhibition) or LC50 (lethal concentration). GI50 is the maximum concentration at the moment of 50% inhibition of cell proliferation and IC50 is the concentration of the drug that inhibits the enzyme activity in vitro by 50% in this study.”

[21] = system: U87MG glioblastoma (GBM) cell line; assay: SRB analysis 3; details: 48 hours
Protocol: as §2, with “Through SRB analysis (n=3), the effect of triple combination treatment of a CAC inhibitor ([…] inhibitor (KN713: trimetazidine) and other anticancer drug on cell growth in the cancer cells was analyzed. (see Table 11). The” for “The”, “nm.” for “nm. The effect of the drug was expressed as GI50 (50% growth inhibition), TGI (total growth inhibition) or LC50 (lethal concentration). GI50 is the maximum concentration at the moment of 50% inhibition of cell proliferation and IC50 is the concentration of the drug that inhibits the enzyme activity in vitro by 50% in this study.”

cancer cells = assay: SRB analysis 3, triple combination, summary over cancer panels
Protocol: as §1, §2

[22] = Breast Cancer, BT-549, MDA MB 231
[23] = Ovarian Cancer, SK-OV-3, OVCAR-3
[24] = Renal cell carcinoma, ACHN, CAKI-1

With `CCc1c2c(nc3ccc(OC(=O)N4CCC(N5CCCCC5)CC4)cc13)-c1cc3c(c(=O)n1C2)COC(=O)[C@]3(O)CC` [Irinotecan] the “cell growth (Control = 100)” value (A375 melanoma cell line; Irinotecan 2.5 μM) was −23.32, the “cell growth (Control = 100)” value ([1]; Irinotecan 2.5 μM) was 17.6 and the “cell growth (Control = 100)” value ([2]; Irinotecan 2.5 μM) was −43.8973. For the same compound, the “cell growth (Control = 100)” value ([3]; Irinotecan 2.5 μM) was 13.58, the “cell growth (Control = 100)” value ([4]; Irinotecan 2.5 μM) was 45.75 and the “cell growth (Control = 100)” value ([5]; Irinotecan 2.5 μM) was 10.02. For the same compound, the “cell growth (Control = 100)” value ([6]; Irinotecan 2.5 μM) was 22.65, the “cell growth (Control = 100)” value ([7]; Irinotecan 5 μM) was 28.6 and the “cell growth (Control = 100)” value ([8]; Irinotecan 2.5 μM) was 25.71. For the same compound, the “cell growth (Control = 100)” value ([9]; Irinotecan 2.5 μM) was −0.3443, the “cell growth (Control = 100)” value ([10]; Irinotecan 2.5 μM) was 15.47 and the “cell growth (Control = 100)” value ([11]; Irinotecan 2.5 μM) was 7.427. The “cell growth (Control = 100)” value ([12]; Irinotecan 2.5 μM) was 78.25, the “cell growth (Control = 100)” value ([13]; Irinotecan 2.5 μM) was 2.59 and the “cell growth (Control = 100)” value ([14]; MKN45, Irinotecan 2.5 μM) was 40.94. For the same compound, the “cell growth (Control = 100)” value ([15]; Irinotecan 2.5 μM) was 36.34, the “cell growth (Control = 100)” value ([16]; Irinotecan 5 μM) was 37.7 and the “cell growth (Control = 100)” value ([17]; Irinotecan 2.5 μM) was 13.57. The “cell growth (Control = 100)” value ([18]; Irinotecan 2.5 μM) was −15.5188, the “cell growth (Control = 100)” value ([19]; Irinotecan 2.5 μM) was −13.35 and the “cell growth (Control = 100)” value ([20]; Irinotecan 2.5 μM) was 71.53. The “cell growth (Control = 100)” value ([21]; Irinotecan 2.5 μM) was 6.31, the “Positive/Negative (triple combination of KN510, KN713 and the listed anticancer drug)” value (“Positive/Negative” for short) (cancer cells; [22]) was “Positive” and the “Positive/Negative” value (cancer cells; Colon Cancer, HT-29, COLO-205) was “negative”. The “Positive/Negative” value (cancer cells; GBM, U87MG, T87G) was “Positive”, the “Positive/Negative” value (cancer cells; Liver Cancer, SNU-449, Huh-7) was “negative” and the “Positive/Negative” value (cancer cells; NSCLC, A549, H522) was “Positive”. The “Positive/Negative” value (cancer cells; [23]) was “negative”, the “Positive/Negative” value (cancer cells; PDAC, MIA PaCa-2, PANC-1) was “Positive” and the “Positive/Negative” value (cancer cells; Prostate Cancer, PC-3, DU-145) was “Positive”. The “Positive/Negative” value (cancer cells; [24]) was “negative”, the “Positive/Negative” value (cancer cells; Stomach Cancer, MKN-28, AGS) was “Positive” and the “Positive/Negative” value (cancer cells; melanoma, UACC62, A375) was “Positive”.
`CC(=O)O[C@H]1C(=O)[C@@]2(C)[C@H]([C@H](OC(=O)c3ccccc3)[C@]3(O)C[C@H](OC(=O)[C@H](O)[C@@H](NC(=O)c4ccccc4)c4ccccc4)C(C)=C1C3(C)C)[C@]1(OC(C)=O)CO[C@@H]1C[C@@H]2O` [Paclitaxel] was tested, and the “cell growth (Control = 100)” value (A375 melanoma cell line; Paclitaxel 10 nM) was 40.20, the “cell growth (Control = 100)” value ([1]; Paclitaxel 10 nM) was 17.6 and the “cell growth (Control = 100)” value ([2]; Paclitaxel 10 nM) was 105.2409. The “cell growth (Control = 100)” value ([3]; Paclitaxel 20 nM) was 20.3903, the “cell growth (Control = 100)” value ([4]; Paclitaxel 10 nM) was 41.94 and the “cell growth (Control = 100)” value ([5]; Paclitaxel 10 nM) was −8.628. The “cell growth (Control = 100)” value ([6]; Paclitaxel 10 nM) was 128.124, the “cell growth (Control = 100)” value ([7]; Paclitaxel 10 nM) was 46.381 and the “cell growth (Control = 100)” value ([8]; Paclitaxel 10 nM) was 45.06. For the same compound, the “cell growth (Control = 100)” value ([9]; Paclitaxel 10 nM) was 15.07, the “cell growth (Control = 100)” value ([10]; Paclitaxel 10 μM) was 63.01 and the “cell growth (Control = 100)” value ([11]; Paclitaxel 10 μM) was 17.28. For the same compound, the “cell growth (Control = 100)” value ([12]; Paclitaxel 10 μM) was 70.48, the “cell growth (Control = 100)” value ([13]; Paclitaxel 10 nM) was 16.4 and the “cell growth (Control = 100)” value ([14]; MKN-45, Paclitaxel 20 nM) was 8.846. For the same compound, the “cell growth (Control = 100)” value ([15]; Paclitaxel 10 μM) was 76.61, the “cell growth (Control = 100)” value ([16]; Paclitaxel 10 nM) was 47.85 and the “cell growth (Control = 100)” value ([17]; Paclitaxel 10 μM) was 62.41. The “cell growth (Control = 100)” value ([18]; Paclitaxel 10 μM) was 78.76, the “cell growth (Control = 100)” value ([19]; Paclitaxel 10 nM) was 65.90 and the “cell growth (Control = 100)” value ([20]; Paclitaxel 10 nM) was 56.70. The “cell growth (Control = 100)” value ([21]; Paclitaxel 10 nM) was 28.87, the “Positive/Negative” value (cancer cells; [22]) was “Positive” and the “Positive/Negative” value (cancer cells; Colon Cancer, HT-29, COLO-205) was “Positive”. For the same compound, the “Positive/Negative” value (cancer cells; GBM, U87MG, T87G) was “Positive”, the “Positive/Negative” value (cancer cells; Liver Cancer, SNU-449, Huh-7) was “Positive” and the “Positive/Negative” value (cancer cells; NSCLC, A549, H522) was “Positive”. For the same compound, the “Positive/Negative” value (cancer cells; [23]) was “Positive”, the “Positive/Negative” value (cancer cells; PDAC, MIA PaCa-2, PANC-1) was “Positive” and the “Positive/Negative” value (cancer cells; Prostate Cancer, PC-3, DU-145) was “Positive”. For the same compound, the “Positive/Negative” value (cancer cells; [24]) was “negative”, the “Positive/Negative” value (cancer cells; Stomach Cancer, MKN-28, AGS) was “Positive” and the “Positive/Negative” value (cancer cells; melanoma, UACC62, A375) was “Positive”.
